Reference: patent publication US4318898A, “Technetium-99m-labelled (2,4,5-trimethylacetanilido)-iminodiacetate for liver function diagnosis, chloroacetric acid (2,4,5-trimethylanilide), (2,4,5-trimethylacetanilido)-iminodiacetate, and process for their preparation” (Hoechst Aktiengesellschaft, priority 1978, dated 1982)

Tests used:
[1] = Gamma-camera observation of activity distribution over time in rabbit after injection into the ear vein; format: in vivo; conditions: for livermax (time of maximal liver activity after the injection) / livermax/2 (half-life of the activity in the liver, outside of the gallbladder): rabbit, 0.5 mCi, ear vein, Tc-99m labelled
Experimental: (1) 0.5 mCi of the labelled diagnostic agent ia administered to a rabbit by injection into the ear vein, and the distribution of the activity is observed during the passage of time by means of a gamma-camera connected with a data processing system. The progress of the activity in defined organs is thus observed. The following parameters are determined:
1. livermax =time of maximal liver activity after the injection
2. livermax/2 =half-life of the activity in the liver (outside of the gallbladder).
1.8 g (2,4,5-trimethylacetanilido)-iminodiacetic acid is dissolved in 20 ml of 0.5 N sodium hydroxide solution and 36 mg of SnCl2.2H2 O (dissolved in 6 ml of 0.1 N hydrochloric acid) are added. The batch is stirred for 5 minutes, the pH is adjusted to 6 by means of hydrochloric acid, the batch is brought to 60 ml and divided into 1 ml portions. 10 mCi of Tc-99m pertechnetate in 4 ml of physiological saline solution are added to such a portion. […] All operations were carried out under a protective N2 gas atmosphere.

[2] = Distribution of radioactivity in the organs of rats after injection into the thigh vein; format: in vivo, rat; conditions: for radioactivity in intestines / radioactivity in kidneys / radioactivity in liver: rat, 30 μCi, thigh vein
Experimental: 2. 30 μCi each of the labelled diagnostic agent are administered to groups of 12 rats each by injection into the thigh vein. Subsequently, 3 animals each are killed after 5, 10, 20 and 30 minutes, and the distribution of radioactivity in the organs is determined.
After stirring for 5 minutes, the pH is adjusted to 6 by means of hydrochloric acid, the batch is brought to 233 ml, divided into 1 ml portions in beaded rim vials, and frozen with liquid nitrogen. Subsequently, the product is lyophilized, the vials are filled with nitrogen and closed. After a storage time of 60 days, 0.3 mCi to Tc-99m pertechnetate in 10 ml of physiological saline solution is injected into the closed vials. After a reaction time of 20 minutes, 0.5 ml each of the diagnostic agent so obtained is administered intravenously to rats (typical test results are indicated in Table 2).

mice = experiment: Toxicity (dosis tolerata maxima, LD50) in mice; format: in vivo
rats = experiment: Toxicity (dosis tolerata maxima, LD50) in rats; format: in vivo
[3] = compared to the hitherto known products

Molecule | livermax (time of maximal liver activity after the injection) [1] | livermax/2 (half-life of the activity in the liver, outside of the gallbladder) [1] | radioactivity in intestines ([2]; 5 minutes) | radioactivity in kidneys ([2]; 5 minutes) | radioactivity in liver ([2]; 5 minutes) | radioactivity in intestines ([2]; 10 minutes) | radioactivity in kidneys ([2]; 10 minutes) | radioactivity in liver ([2]; 10 minutes) | radioactivity in intestines ([2]; 20 minutes) | radioactivity in kidneys ([2]; 20 minutes) | radioactivity in liver ([2]; 20 minutes) | radioactivity in intestines ([2]; 30 minutes) | radioactivity in kidneys ([2]; 30 minutes) | radioactivity in liver ([2]; 30 minutes) | passage through the liver [1, 3] | activity concentration in the kidney [2, 3] | LD50 (mice) | dosis tolerata maxima (mice) | LD50 (rats) | dosis tolerata maxima (rats)
^99m Tc-(2,6-diethylacetanilido)-iminodiacetate [EHIDA] | 6.8 min | 15.7 min | 71.2% | 4.3% | 6.9% | 79.9% | 4.2% | 3.4% | 81.7% | 3.6% | 1.6% | 81.8% | 3.4% | 1.5% |  |  |  |  |  | 
Cc1cc(C)c(NC(=O)CN(CC(=O)O)CC(=O)O)cc1C [TMIDA, (2,4,5-trimethylacetanilido)-iminodiacetate] | 2.6 min | 7.7 min | 56.8% | 3.3% | 19.1% | 68.8% | 3.1% | 9.6% | 81.1% | 2.5% | 2.4% | 82.0% | 2.1% | 1.2% | more rapid passage through the liver | decreased activity concentration in the kidney | 246 mg per kg of test animal | 189 mg/kg of body weight | 255 mg per kg of test animal | 189 mg/kg of body weight

Now from value to molecule, other results behind:

livermax (time of maximal liver activity after the injection) [1] | livermax/2 (half-life of the activity in the liver, outside of the gallbladder) [1] | radioactivity in intestines ([2]; 5 minutes) | radioactivity in kidneys ([2]; 5 minutes) | radioactivity in liver ([2]; 5 minutes) | radioactivity in intestines ([2]; 10 minutes) | radioactivity in kidneys ([2]; 10 minutes) | radioactivity in liver ([2]; 10 minutes) | radioactivity in intestines ([2]; 20 minutes) | radioactivity in kidneys ([2]; 20 minutes) | radioactivity in liver ([2]; 20 minutes) | radioactivity in intestines ([2]; 30 minutes) | radioactivity in kidneys ([2]; 30 minutes) | radioactivity in liver ([2]; 30 minutes) | Molecule | passage through the liver [1, 3] | activity concentration in the kidney [2, 3] | LD50 (mice) | dosis tolerata maxima (mice) | LD50 (rats) | dosis tolerata maxima (rats)
4.6 min | 15.3 min | 60.9% | 4.4% | 10.0% | 65.3% | 4.4% | 7.0% | 71.9% | 4.4% | 4.4% | 72.2% | 3.8% | 4.4% | CC(C)c1cccc(C(C)C)c1NC(=O)CN(CC(=O)O)CC(=O)O [2,6-diisopropyl-, (2,6-diisopropylacetanilido)-iminodiacetate] |  |  |  |  |  | 
4.2 min | 10.0 min | 57.0% | 3.6% | 23.5% | 66.0% | 3.8% | 12.1% | 79.2% | 3.8% | 2.9% | 81.0% | 3.3% | 1.6% | Cc1cc(C)c(NC(=O)CN(CC(=O)O)CC(=O)O)c(C)c1 [2,4,6-trimethyl-, (2,4,6-trimethylacetanilido)iminodiacetate] |  |  |  |  |  | 
5.7 min | 8.2 min | 43.2% | 7.4% | 21.7% | 65.9% | 7.4% | 9.6% | 80.8% | 5.8% | 2.2% | 79.7% | 4.9% | 1.0% | ^99m Tc-(2,6-dimethylacetanilido)-iminodiacetate [HIDA] |  |  |  |  |  | 
